Laboratory results reported in EP4772560A1, “POLYESTER RESIN COMPRISING REGENERATED BIS(2-HYDROXYETHYL)TEREPHTHALATE, AND ARTICLE COMPRISING POLYESTER RESIN” (SK Chemicals Co., Ltd., priority 2023, dated 2025).

Experiment: Thermal property drop index (TDI) calculated from HPLC peak area fractions of recycled BHET
Type: physicochemical
Conditions: thermal property drop index = [DEG-ester-1] + [DEG-ester-2] × 2 + exp[HA-ester], from HPLC peak area fractions (%)
Procedure: About 0.01 g of recycled bis(2-hydroxyethyl) terephthalate was diluted in about 20 ml of methanol, which was analyzed by high-performance liquid chromatography (HPLC) (model: Waters e2695, column: C18 (4.6 × 250 mm), 5 µm, UV detector: 242 nm, injection volume: 10 µl, eluent (gradient) A: H2O + H3PO4, B: acetonitrile) Thereafter, the peak area fractions (%) of the following components among the total peak area of HPLC were obtained. • MHET: monohydroxyethyl terephthalate • BHET: bis(2-hydroxyethyl) terephthalate, • DEG-ester-1: 2-hydroxyethyl[2-(2-hydroxyethoxy)ethyl] terephthalate • DEG-ester-2: bis[2-(2-hydroxyethoxy)ethyl]benzene-1,4-dicarboxylate • HA-ester: 2-hydroxyethyl(2-acetoxyethyl) terephthalate • Dimer: BHET dimer • Trimer: BHET trimer
Recycled bis(2-hydroxyethyl) terephthalate was subjected to HPLC analysis in the same manner as in section (1) above. The thermal property drop index (TDI) defined by the following equation was then calculated. TDI = [DEG−ester−1] + [DEG−ester−2] × 2 + exp^(∧) [HA−ester] [formula]
Here, DEG-ester-1 is the peak area fraction (%) of 2-hydroxyethyl[2-(2-hydroxyethoxy)ethyl] terephthalate, DEG-ester-2 is the peak area fraction (%) of bis[2-(2-hydroxyethoxy)ethyl]benzene-1,4-dicarboxylate, and HA-ester is the peak area fraction (%) of 2-hydroxyethyl(2-acetoxyethyl) terephthalate. It was calculated by taking only the numerical values excluding the units of these parameters.

O=C(OCCO)c1ccc(C(=O)OCCO)cc1 [r-BHET A6, bis(2-hydroxyethyl) terephthalate]
TDI (listed as A6): 1.86

O=C(OCCO)c1ccc(C(=O)OCCO)cc1 [r-BHET B2, bis(2-hydroxyethyl) terephthalate, reference compound]
TDI (listed as B2): 6.87

O=C(OCCO)c1ccc(C(=O)OCCO)cc1 [r-BHET A7, bis(2-hydroxyethyl) terephthalate]
TDI (listed as A7): 1.71

O=C(OCCO)c1ccc(C(=O)OCCO)cc1 [r-BHET B1, bis(2-hydroxyethyl) terephthalate, reference compound]
TDI (listed as B1): 9.23

O=C(OCCO)c1ccc(C(=O)OCCO)cc1 [r-BHET A3, bis(2-hydroxyethyl) terephthalate]
TDI (listed as A3): 1.74

O=C(OCCO)c1ccc(C(=O)OCCO)cc1 [r-BHET A1, bis(2-hydroxyethyl) terephthalate]
TDI (listed as A1): 1.71

O=C(OCCO)c1ccc(C(=O)OCCO)cc1 [r-BHET A4, bis(2-hydroxyethyl) terephthalate]
TDI (listed as A4): 1.86

O=C(OCCO)c1ccc(C(=O)OCCO)cc1 [r-BHET A5, bis(2-hydroxyethyl) terephthalate]
TDI (listed as A5): 2.55

O=C(OCCO)c1ccc(C(=O)OCCO)cc1 [r-BHET A2, bis(2-hydroxyethyl) terephthalate]
TDI (listed as A2): 1.59
